Where two headings read alike, the source gives them in different places. Non-standard residues stand in square brackets, D forms with d. Residues, ends and D or L forms follow the SMILES beside them. Aun = NCCCCCCCCCCC(=O)O; Aoc = NCCCCCCCC(=O)O
Assays:
[1] = system: Candida albicans, SLU-1; test: 28-day comparative survival efficacy study in mice systemically infected with Candida albicans; type: in vivo, male DBA/2 mice; settings: for improvement in mortality compared with dextrose-treated controls: mice infected iv with C. albicans SLU-1, two doses less than 5 mg/kg, initial experiments (p>0.5)
Protocol: Derivatized peptide-based constructs are tested for activity upon oral administration (oral activity) in a 28-day comparative survival efficacy study in mice systemically infected with Candida albicans. Specifically, male DBA/2 mice (Charles River Laboratories) six weeks of age are dosed with 7.9×10^4 Candida albicans, SLU-1 in 100 μL intravenously via the tail vein in a single dosage on day zero (0). However, other routes of administration, including intraperitoneal (ip) and subcutaneous (sc) routes may be administered. Amphotericin B will provide complete protection at 0.5 mg/kg qod (100% survival). Mortality data will be subjected to Kaplan-Meier survival analysis. All treatment groups may be considered statistically significant vs. saline at p values <0.05.
Treatment begins immediately thereafter with 400 μL oral gavage of either 0.5% dextrose, or derivative compound in 0.5% dextrose at various dosage levels (e.g., 10 mg/kg or 20 mg/kg) according to a prescribed dosing regimen (e.g. every other day for a total of eight times). Amphotericin B (Fungizone®) is administered intravenously at 0.5 mg/kg as a positive control every other day for a total of eight times. Twice-day monitoring (once daily on weekends and holidays) for mortality is performed. The animals treated with antiflngal derivative compound show improvement in mortality compared with the dextrose-treated controls, preferably statistically significant improvement (p-value of […]).

[2] = system: Candida albicans SLU-1; test: Radial diffusion assay; type: cell-based
Protocol: In the radial diffusion assay procedures, the CA-1 cultures and derivatized peptide solutions were prepared as in the broth microdilution assay procedure described above, i.e., CA-1 was grown to exponential phase in SDB. Ten (10) mL of molten underlayer agarose comprising 3% Sabouraud Dextrose broth, 1% agarose (Pharmacia, Piscataway, N.J.), 0.02% Tween 20, and 10 mM sodium phosphate at pH 7.4, was added to polystyrene tubes and maintained in a 56° C. water bath until the addition of yeast. Tubes were cooled to approximately 45° C., yeast were added to give a final concentration of 1×10^6 CFU/mL, and the tubes were mixed again by inverting. The contents were poured into leveled, square petri dishes and distributed evenly. […] A series of wells were punched into the hardened agarose using a sterile 3 mm punch attached to a vacuum apparatus to achieve a uniform, 3 mm diameter well.
Derivatized peptide sequences to be assayed were 2-fold serially diluted in 10 mM Dulbecco's PBS (D-PBS) starting from a concentration of approximately […]. Five μL of each dilution were added to each well and the plates were incubated at 37° C. for 3 hours to allow for complete diffusion of the test compounds. An overlayer of 10 mL of molten agarose comprising 6% Sabouraud Dextrose broth, 1% agarose, and 10 mM sodium phosphate, pH 7.4, (at approximately 45° C.) was then added and plates were incubated overnight at 37° C. Following this overnight incubation, a dilute Coomassie solution was poured into the plates and allowed to stain for 24 hours to enhance visualization of the zones.
Clear zones of growth inhibition around each well were measured with calipers. The actual area of growth inhibition (mm^2) was calculated by subtracting the area of the well. Table II below sets out the results of the radial diffusion assays for a series of tested peptide-based constructs in terms of the number of picomoles (pmol) of compound required to establish a 30 mm^2 area of growth inhibition of Candida albicans SLU-1 calculated by PROBIT analysis (e.g., calculated from regression of the linear portion of log-concentration dose-response curve, log pmol/well vs. net area of inhibition).

[3] = system: Candida albicans designated CA-1, Strain SLU-1; type: cell-based
Protocol: In each broth microdilution assay screening procedure, a colony of Candida albicans designated CA-1, Strain SLU-1 that was received from the laboratories of G. Matuschak and A. Lechner, St. Louis University Hospital, St. Louis, Mo., where the strain was maintained, was inoculated into a tube containing 5 mL Sabouraud Dextrose broth (2% dextrose, 1% neopeptone) and incubated at 37° C. with shaking. The overnight culture was diluted 1:50 into 5 ml of fresh broth and incubated for 3 hours at 37° C. to exponential phase growth. Organisms were pelleted by centrifugation in a Beckman J-6M centrifuge for 5 minutes at 3000 rpm (1500×g) and the pellets were resuspended in 5 mL phosphate buffered saline (PBS) and the optical density (OD) at 570 nm was determined. On the basis of the determination that one OD unit equals 3×10^7 colony forming units/mL (CFU/mL), yeast cells were diluted to 5×10^3 CFU/mL in Sabouraud Dextrose broth (SBD).
Derivatized peptide sequences based on Domain III of BPI to be screened which were originally constituted in Dulbecco's-PBS, were two-fold serially diluted in SDB starting from a concentration of 128 μg/mL. Equal volumes (100 μL) of yeast suspension as prepared above and derivatized peptide solution were added to wells of a 96-well sterile, flat bottom, non-pyrogenic tissue culture microtiter plate (Costar, Cambridge, Mass.) to reach a final volume of 200 μL/well. The plate was incubated on a shaker at 37° C. for 24 hours. All assays were performed in triplicate. Following the incubation period, plates were read in an ELISA plate reader at 595 nm wavelength to determine the minimum inhibitory concentration (MIC), i.e., the lowest concentration required to reduce the optical density at 595 nm to below 0.1 OD.

[4] = 30 mm^2 area of growth inhibition, calculated by PROBIT analysis
[5] = designated CA-1, Strain SLU-1, 24 h

C[C@@H]1[C@H](O)[C@@H](C)/C=C/C=C/C=C/C=C/C=C/C=C/C=C/[C@H](O[C@@H]2O[C@H](C)[C@@H](O)[C@H](N)[C@@H]2O)C[C@@H]2O[C@](O)(C[C@@H](O)C[C@@H](O)[C@H](O)CC[C@@H](O)C[C@@H](O)CC(=O)O[C@H]1C)C[C@H](O)[C@H]2C(=O)O [Amphotericin B, reference compound]
survival ([1]; 0.5 mg/kg qod, positive control, 'will provide complete protection'): 100%

CC[C@@H](C)[C@@H](NC(=O)[C@@H](CC(C)C)NC(=O)[C@@H](Cc1c[nH]c2ccccc12)NC(=O)[C@@H](CCCCN)NC(=O)CCCCCCCN)C(=O)N[C@H](CCC(N)=O)C(=O)N[C@H](CC(C)C)C(=O)N[C@H](Cc1ccccc1)C(=O)N[C@H](Cc1c[nH]cn1)C(=O)N[C@H](CCCCN)C(=O)N[C@H](CCCCN)C(N)=O [XMP.416] (H-[Aoc][dK][dW][dL][dI][dQ][dL][dF][dH][dK][dK]-NH2)
Radial Diffusion (pmol to achieve 30 mm^2 zone C. albicans SLU1) [2, 4]: 410 pmol
Broth Microdilution (MIC values in μg/mL C. albicans SLU1) [3, 5]: 1 µg/mL

CC[C@@H](C)[C@@H](NC(=O)[C@@H](CC(C)C)NC(=O)[C@@H](Cc1c[nH]c2ccccc12)NC(=O)[C@@H](CCCCN)NC(=O)CCCCCCCCCCN)C(=O)N[C@H](CCC(N)=O)C(=O)N[C@H](CC(C)C)C(=O)N[C@H](Cc1ccccc1)C(=O)N[C@H](Cc1c[nH]cn1)C(=O)N[C@H](CCCCN)C(=O)N[C@H](CCCCN)C(N)=O [XMP.496] (H-[Aun][dK][dW][dL][dI][dQ][dL][dF][dH][dK][dK]-NH2)
Radial Diffusion (pmol to achieve 30 mm^2 zone C. albicans SLU1) [2, 4]: 434 pmol
Broth Microdilution (MIC values in μg/mL C. albicans SLU1) [3, 5]: 1 µg/mL
improvement in mortality compared with dextrose-treated controls [1]: did not exhibit statistically significant improvement

CC[C@@H](C)[C@@H](NC(=O)[C@@H](CC(C)C)NC(=O)[C@@H](Cc1c[nH]c2ccccc12)NC(=O)[C@@H](CCCCN)NC(=O)c1c[nH]cn1)C(=O)N[C@H](CCC(N)=O)C(=O)N[C@H](CC(C)C)C(=O)N[C@H](Cc1ccccc1)C(=O)N[C@H](Cc1c[nH]cn1)C(=O)N[C@H](CCCCN)C(=O)N[C@H](CCCCN)C(N)=O [XMP.500]
improvement in mortality compared with dextrose-treated controls [1]: did not exhibit statistically significant improvement

CC[C@@H](C)[C@@H](NC(=O)[C@@H](CC(C)C)NC(=O)[C@@H](Cc1c[nH]c2ccccc12)NC(=O)[C@@H](CCCCN)NC(C)=O)C(=O)N[C@H](CCC(N)=O)C(=O)N[C@H](CC(C)C)C(=O)N[C@H](Cc1ccccc1)C(=O)N[C@H](Cc1c[nH]cn1)C(=O)N[C@H](CCCCN)C(=O)N[C@H](CCCCNC(=O)CCCC[C@@H]1SC[C@@H]2NC(=O)N[C@@H]21)C(N)=O [XMP.518]
Radial Diffusion (pmol to achieve 30 mm^2 zone C. albicans SLU1) [2, 4]: 484 pmol
Broth Microdilution (MIC values in μg/mL C. albicans SLU1) [3, 5]: 8 µg/mL

CC[C@@H](C)[C@@H](NC(=O)[C@@H](CC(C)C)NC(=O)[C@@H](Cc1c[nH]c2ccccc12)NC(=O)[C@@H](CCCCN)NC(C)=O)C(=O)N[C@H](CCC(N)=O)C(=O)N[C@H](CC(C)C)C(=O)N[C@H](Cc1ccccc1)C(=O)N[C@H](Cc1c[nH]cn1)C(=O)N[C@H](CCCCNC(=O)CCCC[C@@H]1SC[C@@H]2NC(=O)N[C@@H]21)C(=O)N[C@H](CCCCN)C(N)=O [XMP.521]
Radial Diffusion (pmol to achieve 30 mm^2 zone C. albicans SLU1) [2, 4]: 959 pmol
Broth Microdilution (MIC values in μg/mL C. albicans SLU1) [3, 5]: 16 µg/mL

CC[C@@H](C)[C@@H](NC(=O)[C@@H](CC(C)C)NC(=O)[C@@H](Cc1c[nH]c2ccccc12)NC(=O)[C@@H](CCCCN)NC(=O)c1cc2ccccc2o1)C(=O)N[C@H](CCC(N)=O)C(=O)N[C@H](CC(C)C)C(=O)N[C@H](Cc1ccccc1)C(=O)N[C@H](Cc1c[nH]cn1)C(=O)N[C@H](CCCCN)C(=O)N[C@H](CCCCN)C(N)=O [XMP.536]
Radial Diffusion (pmol to achieve 30 mm^2 zone C. albicans SLU1) [2, 4]: >3,371 pmol
Broth Microdilution (MIC values in μg/mL C. albicans SLU1) [3, 5]: 4 µg/mL

CC[C@@H](C)[C@@H](NC(=O)[C@@H](CC(C)C)NC(=O)[C@@H](Cc1c[nH]c2ccccc12)NC(=O)[C@@H](CCCCN)NC(=O)c1cc2ccccc2[nH]1)C(=O)N[C@H](CCC(N)=O)C(=O)N[C@H](CC(C)C)C(=O)N[C@H](Cc1ccccc1)C(=O)N[C@H](Cc1c[nH]cn1)C(=O)N[C@H](CCCCN)C(=O)N[C@H](CCCCN)C(N)=O [XMP.545]
Radial Diffusion (pmol to achieve 30 mm^2 zone C. albicans SLU1) [2, 4]: 1,635 pmol
Broth Microdilution (MIC values in μg/mL C. albicans SLU1) [3, 5]: 8 µg/mL

CC[C@@H](C)[C@@H](NC(=O)[C@@H](CC(C)C)NC(=O)[C@@H](Cc1c[nH]c2ccccc12)NC(=O)[C@@H](CCCCN)NC(=O)c1nccc2ccccc12)C(=O)N[C@H](CCC(N)=O)C(=O)N[C@H](CC(C)C)C(=O)N[C@H](Cc1ccccc1)C(=O)N[C@H](Cc1c[nH]cn1)C(=O)N[C@H](CCCCN)C(=O)N[C@H](CCCCN)C(N)=O [XMP.546]
Radial Diffusion (pmol to achieve 30 mm^2 zone C. albicans SLU1) [2, 4]: >3,371 pmol
Broth Microdilution (MIC values in μg/mL C. albicans SLU1) [3, 5]: >64 µg/mL

CC[C@@H](C)[C@@H](NC(=O)[C@@H](CC(C)C)NC(=O)[C@@H](Cc1c[nH]c2ccccc12)NC(=O)[C@@H](CCCCN)NC(=O)c1ccc2ccccc2n1)C(=O)N[C@H](CCC(N)=O)C(=O)N[C@H](CC(C)C)C(=O)N[C@H](Cc1ccccc1)C(=O)N[C@H](Cc1c[nH]cn1)C(=O)N[C@H](CCCCN)C(=O)N[C@H](CCCCN)C(N)=O [XMP.596]
Radial Diffusion (pmol to achieve 30 mm^2 zone C. albicans SLU1) [2, 4]: 3,140 pmol
Broth Microdilution (MIC values in μg/mL C. albicans SLU1) [3, 5]: 2 µg/mL

CC[C@@H](C)[C@@H](NC(=O)[C@@H](CC(C)C)NC(=O)[C@@H](Cc1c[nH]c2ccccc12)NC(=O)[C@@H](CCCCN)NC(=O)c1cccc(Cl)c1[N+](=O)[O-])C(=O)N[C@H](CCC(N)=O)C(=O)N[C@H](CC(C)C)C(=O)N[C@H](Cc1ccccc1)C(=O)N[C@H](Cc1c[nH]cn1)C(=O)N[C@H](CCCCN)C(=O)N[C@H](CCCCN)C(N)=O [XMP.618]
Radial Diffusion (pmol to achieve 30 mm^2 zone C. albicans SLU1) [2, 4]: 2,146 pmol
Broth Microdilution (MIC values in μg/mL C. albicans SLU1) [3, 5]: 4 µg/mL

XMP.503: R1 = pyridine carbonyl, R2 = R3 = H (KWLIQLFHKK; XMP.503; Position 1 is derivatized at the alpha-amino with: pyridine carbonyl; Positions 1-10 are D-Amino Acids; AMIDATION=The C-terminus is Amidated)
improvement in mortality compared with dextrose-treated controls [1]: did not exhibit statistically significant improvement

XMP.535: peptide-based construct; derivatization not given in Table I (KWLIQLFHKK; XMP.535; Position 1 is derivatized at the alpha-amino with: anthraquinone carbonyl; Positions 1-10 are D-Amino Acids; AMIDATION=The C-terminus is Amidated)
Radial Diffusion (pmol to achieve 30 mm^2 zone C. albicans SLU1) [2]: b (no detectable activity up to 5 μg/well)
Broth Microdilution (MIC values in μg/mL C. albicans SLU1) ([3]; C. albicans SLU1): b (no detectable activity up to 5 μg/well)

From patent US6355616B1, “Derivative compounds derived from or based on bactericidal/permeability-increasing protein” (priority 1999, dated 2002)
